For three molecules, residual activity, % of control and inhibition results are on record in ChEMBL document CHEMBL5696442, “Discovery of type II inhibitors of TGFβ-activated kinase 1 (TAK1) and mitogen-activated protein kinase kinase kinase kinase 2 (MAP4K2)” (J Med Chem, 2015).

Test [1] deals with Ephrin type-B receptor 3 (Homo sapiens) (UniProt P54753). The experiment in a line: Inhibition of EPHB3 (unknown origin) at 1 uM by Ambit Kinomescan binding assay relative to control; values are per cent of control.
Ephrin type-B receptor 3 (Homo sapiens), sequence (P54753 whole entry): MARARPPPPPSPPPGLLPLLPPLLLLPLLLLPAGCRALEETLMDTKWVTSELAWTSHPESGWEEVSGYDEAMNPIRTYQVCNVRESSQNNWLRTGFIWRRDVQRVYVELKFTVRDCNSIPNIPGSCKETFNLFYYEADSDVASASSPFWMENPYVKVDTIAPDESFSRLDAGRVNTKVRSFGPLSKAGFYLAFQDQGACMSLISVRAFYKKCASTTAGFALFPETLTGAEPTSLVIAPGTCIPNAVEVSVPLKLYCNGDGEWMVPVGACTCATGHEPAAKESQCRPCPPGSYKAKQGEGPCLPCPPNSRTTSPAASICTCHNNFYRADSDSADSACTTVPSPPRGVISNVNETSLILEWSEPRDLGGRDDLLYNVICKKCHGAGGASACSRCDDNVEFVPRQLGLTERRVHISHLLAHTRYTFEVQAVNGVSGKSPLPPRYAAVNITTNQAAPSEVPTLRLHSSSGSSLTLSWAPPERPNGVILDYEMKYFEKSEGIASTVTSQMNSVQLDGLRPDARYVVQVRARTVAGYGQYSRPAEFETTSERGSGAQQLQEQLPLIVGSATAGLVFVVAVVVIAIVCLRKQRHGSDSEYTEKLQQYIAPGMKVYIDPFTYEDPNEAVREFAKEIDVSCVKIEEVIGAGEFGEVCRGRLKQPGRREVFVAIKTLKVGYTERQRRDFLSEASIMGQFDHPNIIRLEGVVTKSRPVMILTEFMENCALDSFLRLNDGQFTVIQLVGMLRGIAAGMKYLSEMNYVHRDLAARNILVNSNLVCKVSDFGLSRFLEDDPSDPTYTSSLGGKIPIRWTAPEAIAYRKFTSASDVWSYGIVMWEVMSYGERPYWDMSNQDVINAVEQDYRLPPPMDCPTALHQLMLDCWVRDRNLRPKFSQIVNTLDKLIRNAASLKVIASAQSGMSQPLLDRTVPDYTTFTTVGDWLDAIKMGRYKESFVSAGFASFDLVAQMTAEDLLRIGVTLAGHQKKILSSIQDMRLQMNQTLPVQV
Test [2] addresses Tyrosine-protein kinase Lyn (Homo sapiens, UniProt P07948). Description: Inhibition of LYN (unknown origin) at 1 uM by Ambit Kinomescan binding assay relative to control; values are per cent of control.
The subject of test [3] is Tyrosine-protein kinase ABL1 (Homo sapiens), P00519 [T315I]. Description: Inhibition of nonphosphorylated ABL1 T315I mutant (unknown origin) at 1 uM by Ambit Kinomescan binding assay relative to control.
Test [4] addresses T1, Myotonin-protein kinase (Homo sapiens) (UniProt Q09013).
T1 sequence (whole entry): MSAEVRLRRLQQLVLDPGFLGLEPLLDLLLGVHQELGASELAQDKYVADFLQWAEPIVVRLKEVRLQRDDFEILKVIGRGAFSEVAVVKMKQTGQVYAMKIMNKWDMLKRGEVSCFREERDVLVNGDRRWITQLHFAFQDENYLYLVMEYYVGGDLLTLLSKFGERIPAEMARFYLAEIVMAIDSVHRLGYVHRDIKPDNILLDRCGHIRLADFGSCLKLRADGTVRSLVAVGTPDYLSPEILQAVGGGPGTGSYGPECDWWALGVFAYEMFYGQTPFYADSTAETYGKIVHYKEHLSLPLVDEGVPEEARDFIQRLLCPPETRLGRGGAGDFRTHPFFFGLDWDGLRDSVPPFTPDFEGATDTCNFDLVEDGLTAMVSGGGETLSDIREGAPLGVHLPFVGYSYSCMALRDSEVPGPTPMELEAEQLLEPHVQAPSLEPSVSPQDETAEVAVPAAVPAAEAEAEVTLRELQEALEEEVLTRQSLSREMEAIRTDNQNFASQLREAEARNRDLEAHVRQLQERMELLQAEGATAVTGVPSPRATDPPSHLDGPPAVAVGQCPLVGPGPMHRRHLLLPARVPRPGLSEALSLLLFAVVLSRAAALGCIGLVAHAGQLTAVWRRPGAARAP
The experiment in a line: Inhibition of DMPK1 K2 labeling site in human Huh-7 cells at 1 uM by KiNativ Profiling analysis relative to control. The class given is cell-based.

Test [5] concerns the target T2, Serine/threonine-protein kinase 3 (Homo sapiens) (UniProt Q13188).
T2 sequence (whole entry): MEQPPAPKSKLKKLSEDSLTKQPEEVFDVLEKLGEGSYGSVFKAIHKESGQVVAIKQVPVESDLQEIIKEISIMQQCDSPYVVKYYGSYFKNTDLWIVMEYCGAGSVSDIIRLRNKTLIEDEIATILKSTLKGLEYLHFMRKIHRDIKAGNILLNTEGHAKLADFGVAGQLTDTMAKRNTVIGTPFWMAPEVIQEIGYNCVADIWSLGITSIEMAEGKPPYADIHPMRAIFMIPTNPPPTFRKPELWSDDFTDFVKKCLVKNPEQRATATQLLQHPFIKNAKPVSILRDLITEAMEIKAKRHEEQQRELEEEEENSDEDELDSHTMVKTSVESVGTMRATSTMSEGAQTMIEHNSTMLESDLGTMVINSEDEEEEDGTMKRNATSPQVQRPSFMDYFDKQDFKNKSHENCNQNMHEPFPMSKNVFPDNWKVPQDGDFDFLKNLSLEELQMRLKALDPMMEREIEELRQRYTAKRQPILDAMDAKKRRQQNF
Description: Inhibition of MST2 Lys1 labeling site in human Huh-7 cells at 1 uM by KiNativ Profiling analysis relative to control. It is filed as cell-based.

The target in test [6] is T3, Dual specificity mitogen-activated protein kinase kinase 6 (Homo sapiens) (UniProt P52564).
T3 sequence (whole entry): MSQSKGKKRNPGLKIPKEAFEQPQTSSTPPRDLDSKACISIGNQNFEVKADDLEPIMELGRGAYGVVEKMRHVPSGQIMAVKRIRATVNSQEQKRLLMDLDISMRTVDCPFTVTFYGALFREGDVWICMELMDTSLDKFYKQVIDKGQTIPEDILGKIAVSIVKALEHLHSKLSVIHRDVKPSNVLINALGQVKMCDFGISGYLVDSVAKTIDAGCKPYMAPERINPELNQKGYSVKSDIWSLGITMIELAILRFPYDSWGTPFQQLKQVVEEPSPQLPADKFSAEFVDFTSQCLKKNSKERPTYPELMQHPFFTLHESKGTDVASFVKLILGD
The experiment in a line: Inhibition of MAP2K6 Lys2 labeling site in human Huh-7 cell lysate at 1 uM by KiNativ Profiling analysis relative to control. The class given is subcellular.

Tyrosine-protein kinase Lyn, sequence (P07948 2-512 limits assumed): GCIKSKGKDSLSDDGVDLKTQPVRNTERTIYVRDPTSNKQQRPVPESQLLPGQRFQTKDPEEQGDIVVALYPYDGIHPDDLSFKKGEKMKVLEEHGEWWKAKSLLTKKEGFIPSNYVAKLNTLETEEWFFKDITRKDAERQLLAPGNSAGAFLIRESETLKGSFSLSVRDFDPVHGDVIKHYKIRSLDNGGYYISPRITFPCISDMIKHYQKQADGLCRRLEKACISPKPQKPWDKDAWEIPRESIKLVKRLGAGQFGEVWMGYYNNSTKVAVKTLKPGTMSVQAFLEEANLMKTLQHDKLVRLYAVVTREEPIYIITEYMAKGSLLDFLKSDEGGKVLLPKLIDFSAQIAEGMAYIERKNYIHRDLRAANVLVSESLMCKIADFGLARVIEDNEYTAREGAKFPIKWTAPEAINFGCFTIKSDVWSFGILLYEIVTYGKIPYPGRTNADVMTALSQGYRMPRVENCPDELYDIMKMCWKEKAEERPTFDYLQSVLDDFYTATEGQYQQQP

Consider `CCN1CCN(Cc2ccc(NC(=O)c3ccc(C)c(/C=C/c4cnc5[nH]ccc5c4OC)c3)cc2C(F)(F)F)CC1`, for which, in test [1], the residual activity – broadly, the share of the control activity or signal that is left under treatment – is 63%. This molecule returned a % of control in test [2] of 0.45%. Further, the inhibition – broadly, the relative decrease from the control value, in per cent – in test [3] turned out to be 11%.
Take `CCN1CCN(Cc2ccc(NC(=O)c3ccc(C)c(Oc4ccnc5[nH]ccc45)c3)cc2C(F)(F)F)CC1`: the inhibition in test [4] was -7.6%.
As to `CNc1cc(Oc2cc(C(=O)Nc3cc(N4CCN(C)CC4)cc(C(F)(F)F)c3)ccc2C)ncn1`, the inhibition in test [5] was 5.3%; in test [6], -4%.
